Laboratory results: patent US20260217701A1, “SELECTIVE BET INHIBITORS AND USES THEREOF” (Tay Therapeutics Limited, priority 2022, published 2026)
Several values for one entry are separate records, joined by “and”; a condition that tells them apart may be missing. Identical values can stand only once. Marks after values point to notes of the source that are not given here.

What was measured:
[1] = EAE study: body weight; format: in vivo, C57BI/6 mice; conditions: for Mean Body Weight Change (% of Day −1): mean end body weight
Protocol: Experimental Method H: EAE in animals treated with a BET inhibitor and vehicle. Animals were assigned to the groups outlined in Table 38.
Compound A may be formulated as illustrated in Experimental Method A (see Table 2E.). A 40 mg/mL stock solution of Compound A in DMSO was prepared and aliquots stored at −20° C. On each day of preparation an e.g., 0.75 mL aliquot of thawed stock was diluted with an equal volume of DMSO. The remaining vehicle components were added to provide the highest dose and then diluted with vehicle to provide lower doses. A 30 mg/mL stock solution of FTY720 in ethanol was prepared and stored at −20° C. Daily, the stock solution was diluted with room temperature water to a final dosing concentration of 0.6 mg/mL. Formulated Compound A, FTY720 and vehicle were each at room temperature for dosing.
Female C57BI/6 mice (9 weeks old) were acclimated for seven days prior to study initiation. On Day-1, animals were assigned to groups in a balanced manner to achieve similar average weights across the different groups. Chronic EAE was induced in female C57BI/6 mice following immunization with an emulsion of MOG35-55/CFA on Day 0, followed by an injection of pertussis toxin two hours after the initial immunization. On Day 1, a second injection of pertussis toxin was administered 24 hours after the initial immunization. Mice were injected subcutaneously at two sites on the back with the MOG35-55/CFA emulsion (Hooke Kit™ MOG35-55/CFA Emulsion PTX). The first injection site was located approximately 1 cm caudal of the neckline (upper back), and the second injection site was approximately 2 cm cranial of the base of the tail (lower back). The injection volume was 0.1 mL for each injection. The pertussis toxin was administered at the described times through intraperitoneal injection at a concentration of 85 ng/dose for both injections.
Body weight was measured three times a week (Monday, Wednesday, and Friday) starting on Day-1. Animals were scored daily for EAE starting on Day 7. In-between scores were assigned when the clinical signs fell between two below defined scores.

[2] = tested on: hydroxyproline; test: UUO study: hydroxyproline levels; format: in vivo, rats
Source text: Table 31 and FIGS. 27B-27C depict hydroxyproline levels in sham rats (black bar in FIG. 27B; square shape in FIG. 27C), UUO rats treated with vehicle (grey bar in FIG. 27B; circle shape in FIG. 27C), and UUO rats treated with Compound A (white bar in FIG. 27B; triangle shape in FIG. 27C).

[3] = Compound A 1 mg/kg (Group 2), Day 0
[4] = Compound A 1 mg/kg (Group 2), Day 2
[5] = Compound A 1 mg/kg (Group 2), Day 5
[6] = Compound A 1 mg/kg (Group 2), Day 7
[7] = Compound A 1 mg/kg (Group 2), Day 9
[8] = Compound A 1 mg/kg (Group 2), Day 12
[9] = Compound A 1 mg/kg (Group 2), Day 14
[10] = Compound A 1 mg/kg (Group 2), Day 16
[11] = Compound A 1 mg/kg (Group 2), Day 19
[12] = Compound A 1 mg/kg (Group 2), Day 21
[13] = Compound A 1 mg/kg (Group 2), Day 23
[14] = Compound A 1 mg/kg (Group 2), Day 27
[15] = Compound A 1 mg/kg (Group 2), Day 28
[16] = Compound A 1 mg/kg (Group 2), Day −1
[17] = Compound A 3 mg/kg (Group 3), Day 0
[18] = Compound A 3 mg/kg (Group 3), Day 2
[19] = Compound A 3 mg/kg (Group 3), Day 5
[20] = Compound A 3 mg/kg (Group 3), Day 7
[21] = Compound A 3 mg/kg (Group 3), Day 9
[22] = Compound A 3 mg/kg (Group 3), Day 12
[23] = Compound A 3 mg/kg (Group 3), Day 14
[24] = Compound A 3 mg/kg (Group 3), Day 16
[25] = Compound A 3 mg/kg (Group 3), Day 19
[26] = Compound A 3 mg/kg (Group 3), Day 21
[27] = Compound A 3 mg/kg (Group 3), Day 23
[28] = Compound A 3 mg/kg (Group 3), Day 27
[29] = Compound A 3 mg/kg (Group 3), Day 28
[30] = Compound A 3 mg/kg (Group 3), Day −1
[31] = Compound A 10 mg/kg (Group 4), Day 0
[32] = Compound A 10 mg/kg (Group 4), Day 2
[33] = Compound A 10 mg/kg (Group 4), Day 5
[34] = Compound A 10 mg/kg (Group 4), Day 7
[35] = Compound A 10 mg/kg (Group 4), Day 9
[36] = Compound A 10 mg/kg (Group 4), Day 12
[37] = Compound A 10 mg/kg (Group 4), Day 14
[38] = Compound A 10 mg/kg (Group 4), Day 16
[39] = Compound A 10 mg/kg (Group 4), Day 19
[40] = Compound A 10 mg/kg (Group 4), Day 21
[41] = Compound A 10 mg/kg (Group 4), Day 23
[42] = Compound A 10 mg/kg (Group 4), Day 27
[43] = Compound A 10 mg/kg (Group 4), Day 28
[44] = Compound A 10 mg/kg (Group 4), Day −1

With `Cn1cc(-c2ccccc2)c(-c2cn(C)c(=O)c3[nH]c(-c4cnn(C(F)(F)F)c4)cc23)cc1=O` [Compound A, 6-methyl-4-(1-methyl-2-oxo-5-phenyl-1,2-dihydropyridin-4-yl)-2-(1-(trifluoromethyl)-1H-pyrazol-4-yl)-1,6-dihydro-7H-pyrrolo[2,3-c]pyridin-7-one] the “Relative end weight (% of the mean Day-1 weight)” value ([1]; 1 mg/kg) was 100.7%, the “Relative end weight (% of the mean Day-1 weight)” value ([1]; 3 mg/kg) was 103% and the “Relative end weight (% of the mean Day-1 weight)” value ([1]; 10 mg/kg) was 106%. For the same compound, the “Mean Body Weight” value [1, 3] was 20.3 g, the “Mean Body Weight (% of Day −1)” value [1, 3] was 100.7 % of Day −1 and the “Mean Body Weight” value [1, 4] was 19.8 g. For the same compound, the “Mean Body Weight (% of Day −1)” value [1, 4] was 98.4 % of Day −1, the “Mean Body Weight” value [1, 5] was 20.0 g and the “Mean Body Weight (% of Day −1)” value [1, 5] was 99.0 % of Day −1. The “Mean Body Weight” value [1, 6] was 20.1 g, the “Mean Body Weight (% of Day −1)” value [1, 6] was 99.8 % of Day −1 and the “Mean Body Weight” value [1, 7] was 21.4 g. For the same compound, the “Mean Body Weight (% of Day −1)” value [1, 7] was 105.3 % of Day −1, the “Mean Body Weight” value [1, 8] was 20.7 g and the “Mean Body Weight (% of Day −1)” value [1, 8] was 102.1 % of Day −1. The “Mean Body Weight” value [1, 9] was 19.9 g, the “Mean Body Weight (% of Day −1)” value [1, 9] was 98.4 % of Day −1 and the “Mean Body Weight” value [1, 10] was 19.4 g. The “Mean Body Weight (% of Day −1)” value [1, 10] was 95.7 % of Day −1, the “Mean Body Weight” value [1, 11] was 19.6 g and the “Mean Body Weight (% of Day −1)” value [1, 11] was 96.8 % of Day −1. The “Mean Body Weight” value [1, 12] was 20.3 g, the “Mean Body Weight (% of Day −1)” value [1, 12] was 99.9 % of Day −1 and the “Mean Body Weight” value [1, 13] was 20.7 g. The “Mean Body Weight (% of Day −1)” value [1, 13] was 102.0 % of Day −1, the “Mean Body Weight” value [1, 14] was 20.4 g and the “Mean Body Weight (% of Day −1)” value [1, 14] was 100.4 % of Day −1. The “Mean Body Weight” value [1, 15] was 20.4 g, the “Mean Body Weight (% of Day −1)” value [1, 15] was 100.7 % of Day −1 and the “Mean Body Weight” value [1, 16] was 20.1 g. The “Mean Body Weight (% of Day −1)” value [1, 16] was 100.0 % of Day −1, the “Mean Body Weight Change (% of Day −1)” value ([1]; Compound A 1 mg/kg) was 100.7* % of Day −1 and the “Mean Body Weight” value [1, 17] was 20.3 g. The “Mean Body Weight (% of Day −1)” value [1, 17] was 100.6 % of Day −1, the “Mean Body Weight” value [1, 18] was 19.5 g and the “Mean Body Weight (% of Day −1)” value [1, 18] was 96.7 % of Day −1. The “Mean Body Weight” value [1, 19] was 19.6 g, the “Mean Body Weight (% of Day −1)” value [1, 19] was 97.2 % of Day −1 and the “Mean Body Weight” value [1, 20] was 20.2 g. The “Mean Body Weight (% of Day −1)” value [1, 20] was 100.0 % of Day −1, the “Mean Body Weight” value [1, 21] was 20.5 g and the “Mean Body Weight (% of Day −1)” value [1, 21] was 101.6 % of Day −1. For the same compound, the “Mean Body Weight” value [1, 22] was 20.6 g, the “Mean Body Weight (% of Day −1)” value [1, 22] was 102.1 % of Day −1 and the “Mean Body Weight” value [1, 23] was 20.0 g. The “Mean Body Weight (% of Day −1)” value [1, 23] was 99.5 % of Day −1, the “Mean Body Weight” value [1, 24] was 19.5 g and the “Mean Body Weight (% of Day −1)” value [1, 24] was 96.9 % of Day −1. For the same compound, the “Mean Body Weight” value [1, 25] was 19.5 g, the “Mean Body Weight (% of Day −1)” value [1, 25] was 97.0 % of Day −1 and the “Mean Body Weight” value [1, 26] was 20.3 g. The “Mean Body Weight (% of Day −1)” value [1, 26] was 101.5 % of Day −1, the “Mean Body Weight” value [1, 27] was 20.8 g and the “Mean Body Weight (% of Day −1)” value [1, 27] was 103.9 % of Day −1. For the same compound, the “Mean Body Weight” value [1, 28] was 20.4 g, the “Mean Body Weight (% of Day −1)” value [1, 28] was 101.8 % of Day −1 and the “Mean Body Weight” value [1, 29] was 20.6 g. The “Mean Body Weight (% of Day −1)” value [1, 29] was 103.0 % of Day −1, the “Mean Body Weight” value [1, 30] was 20.2 g and the “Mean Body Weight (% of Day −1)” value [1, 30] was 100.0 % of Day −1. For the same compound, the “Mean Body Weight Change (% of Day −1)” value ([1]; Compound A 3 mg/kg) was 103.0*** % of Day −1, the “Mean Body Weight” value [1, 31] was 20.5 g and the “Mean Body Weight (% of Day −1)” value [1, 31] was 101.1 % of Day −1. The “Mean Body Weight” value [1, 32] was 19.8 g, the “Mean Body Weight (% of Day −1)” value [1, 32] was 97.9 % of Day −1 and the “Mean Body Weight” value [1, 33] was 20.0 g. The “Mean Body Weight (% of Day −1)” value [1, 33] was 98.9 % of Day −1, the “Mean Body Weight” value [1, 34] was 20.4 g and the “Mean Body Weight (% of Day −1)” value [1, 34] was 101.0 % of Day −1. The “Mean Body Weight” value [1, 35] was 20.6 g, the “Mean Body Weight (% of Day −1)” value [1, 35] was 101.9 % of Day −1 and the “Mean Body Weight” value [1, 36] was 20.2 g. For the same compound, the “Mean Body Weight (% of Day −1)” value [1, 36] was 99.9 % of Day −1, the “Mean Body Weight” value [1, 37] was 19.6 g and the “Mean Body Weight (% of Day −1)” value [1, 37] was 97.2 % of Day −1. The “Mean Body Weight” value [1, 38] was 19.1 g, the “Mean Body Weight (% of Day −1)” value [1, 38] was 94.7 % of Day −1 and the “Mean Body Weight” value [1, 39] was 20.0 g. For the same compound, the “Mean Body Weight (% of Day −1)” value [1, 39] was 99.1 % of Day −1, the “Mean Body Weight” value [1, 40] was 20.7 g and the “Mean Body Weight (% of Day −1)” value [1, 40] was 102.3 % of Day −1. For the same compound, the “Mean Body Weight” value [1, 41] was 21.1 g, the “Mean Body Weight (% of Day −1)” value [1, 41] was 104.2 % of Day −1 and the “Mean Body Weight” value [1, 42] was 21.0 g. The “Mean Body Weight (% of Day −1)” value [1, 42] was 104.0 % of Day −1, the “Mean Body Weight” value [1, 43] was 21.4 g and the “Mean Body Weight (% of Day −1)” value [1, 43] was 106.0 % of Day −1. The “Mean Body Weight” value [1, 44] was 20.2 g, the “Mean Body Weight (% of Day −1)” value [1, 44] was 100.0 % of Day −1 and the “Mean Body Weight Change (% of Day −1)” value ([1]; Compound A 10 mg/kg) was 106.0*** % of Day −1. The “Final Hydroxyproline Con., Mean” value ([2]; UUO rats + Compound A, group mean of 8) was 0.66 μg/mg tissue, the “Final Hydroxyproline Con., Mean ± SEM” value ([2]; UUO rats + Compound A, group of 8) was 0.66 ± 0.05 μg/mg tissue and the “Final Hydroxyproline Con.” value ([2]; UUO rats + Compound A, individual animals) was 0.69 μg/mg tissue and 0.86 μg/mg tissue and 0.63 μg/mg tissue and 0.61 μg/mg tissue (2×) and 0.64 μg/mg tissue and 0.44 μg/mg tissue and 0.80 μg/mg tissue. The “Hydroxyproline levels, difference between experimental groups” value ([2]; UUO rats, 10 mg/kg) was “No significant differences”.
